According to US8354547B2, “4β-amino podophyllotoxin congeners as anti tumour antibiotics a process for the preparation thereof” (Council of Scientific & Industrial Research, priority 2008, dated 2013):

What was measured:
[1] = test system: Breast (MCF-7) cancer cell line; assay: SRB in vitro cytotoxicity assay, Breast MCF-7; type: cell-based, human
Protocol: (§1) Single cell suspension of the tumor cells grown in tissue culture were made, cells counted and cell count adjusted to 1×10^5 to 5×10^5 Ninetysix (96) well plates were seeded with this cell suspension, each well receiving 100 μl of it. The plate was then be incubated at 37° C. temperature in CO2 incubator for 24 hours. Drugs were added at appropriate concentrations after 24-hour, incubation followed by further incubation for 48 hours. Experiment was terminated by gently layering the cells in the wells with 30% TCA and plates were kept in refrigerator for 1 hour following which they were washed thoroughly with tap water, dried attained with 0.4% SRB in 1% acetic aid and finally, the bound SRB eluted with 10 mM tris. Absorbance was read at 540 nm, in the microtitre-plate reader. Optical density of drug-treated cells was compared with that of control cells and cell inhibition was calculated as percent values. […]

[2] = test system: Colon (SW-620) cancer cell line; assay: SRB in vitro cytotoxicity assay, Colon SW-620; type: cell-based, human
Protocol: as §1

[3] = test system: CNS (SK-N-SH) cancer cell line; assay: SRB in vitro cytotoxicity assay, CNS SK-N-SH; type: cell-based, human
Protocol: as §1

[4] = test system: Colon (Colo-205) cancer cell line; assay: SRB in vitro cytotoxicity assay, Colon Colo-205; type: cell-based, human
Protocol: as §1

[5] = test system: Liver (HEP-2) cancer cell line; assay: SRB in vitro cytotoxicity assay, Liver HEP-2; type: cell-based, human
Protocol: as §1

[6] = test system: Neuroblastoma (IMR-32) cancer cell line; assay: SRB in vitro cytotoxicity assay, Neuroblastoma IMR-32; type: cell-based, human
Protocol: as §1

Topoisomerase-I = molecular target: T1, Topoisomerase-I (Homo sapiens, UniProt P11387); assay: Topoisomerase-I relaxation assay; type: biochemical; conditions: at 100 μM (FIG. 2)
T1 sequence (P11387 1-765): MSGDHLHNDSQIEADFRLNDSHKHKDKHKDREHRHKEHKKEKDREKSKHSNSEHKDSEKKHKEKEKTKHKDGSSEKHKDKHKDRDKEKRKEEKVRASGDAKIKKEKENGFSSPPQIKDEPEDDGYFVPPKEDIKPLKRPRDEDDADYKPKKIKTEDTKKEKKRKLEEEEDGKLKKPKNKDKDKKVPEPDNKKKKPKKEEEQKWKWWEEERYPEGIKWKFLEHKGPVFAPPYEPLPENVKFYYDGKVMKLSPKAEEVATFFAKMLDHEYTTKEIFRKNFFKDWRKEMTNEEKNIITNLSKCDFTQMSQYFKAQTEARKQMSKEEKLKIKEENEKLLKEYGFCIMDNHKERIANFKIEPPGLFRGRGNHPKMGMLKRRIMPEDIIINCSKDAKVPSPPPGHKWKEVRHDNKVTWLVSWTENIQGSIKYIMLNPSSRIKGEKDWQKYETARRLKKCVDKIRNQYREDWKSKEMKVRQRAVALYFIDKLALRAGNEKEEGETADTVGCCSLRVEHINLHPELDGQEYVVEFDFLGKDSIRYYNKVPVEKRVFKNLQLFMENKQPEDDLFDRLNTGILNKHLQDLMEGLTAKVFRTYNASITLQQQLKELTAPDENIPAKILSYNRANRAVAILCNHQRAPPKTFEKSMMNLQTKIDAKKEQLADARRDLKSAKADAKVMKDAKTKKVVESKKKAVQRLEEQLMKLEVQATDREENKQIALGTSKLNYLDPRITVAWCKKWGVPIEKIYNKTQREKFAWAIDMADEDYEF
Protocol: Apart from this, some of these analogues were evaluated for Topoisomerase-I relaxation, Topoisomerase-II inhibition, DNA laddering assay and DNA cell cycle analysis. Compounds 3c, 4c, 3d and 4d were analyzed for topoisomerase-I assay at 100 μM (FIG. 2) only compound 3d was found active and rest were not active. Compounds 3d, 4d and 4c were analyzed for topoisomerase inhibition assay.
Reaction was assembled in micro centrifuge tube that contains super coiled DNA 250 ng/μl & Topoisomerase-I (4 units) in assay buffer (10 mM Tris-HCl, pH 7.9, 0.15 M NaCl, 0.1% BSA, and 5.0 mM (beta)-mercaptoethanol). In each reaction 2 μl sample was added then volume was made up to 20 μl with water and then incubated at 37° C. Reaction was terminated by addition of 2 μl of 10% SDS. Each sample tube was treated with proteinase K and extracted once with chloroform: isoamyl alcohol. Products were resolved by 0.8% agarose gel electrophoresis in TAE buffer (40 mM tris-acetate, pH 8.0, and 1 mM EDTA) and stained with 0.5 μg/ml ethedium bromide (EtBr).

Topoisomerase-II = assay: DNA Topoisomerase-II inhibition assay; type: biochemical; conditions: FIG. 3
[7] = concentration 1 × 10^−6 (μM/mL), control drug
[8] = concentration 1 × 10^−5 (μM/mL)

Row | Compound | Growth Inhibition(%) Breast MCF-7 [1, 7] [%] | Growth Inhibition(%) Colon SW-620 [2, 7] [%] | Growth Inhibition(%) CNS SK-N-SH [3, 7] [%] | Growth Inhibition(%) Colon Colo-205 [4, 7] [%] | Growth Inhibition(%) Liver HEP-2 [5, 7] [%] | Growth Inhibition(%) Neuroblastma IMR-32 [6, 7] [%] | Growth Inhibition(%) Breast MCF-7 [1, 8] [%] | Growth Inhibition(%) Colon SW-620 [2, 8] [%] | Growth Inhibition(%) CNS SK-N-SH [3, 8] [%] | Growth Inhibition(%) Colon Colo-205 [4, 8] [%] | Growth Inhibition(%) Liver HEP-2 [5, 8] [%] | Growth Inhibition(%) Neuroblastma IMR-32 [6, 8] [%] | activity in topoisomerase-I assay (Topoisomerase-I) | activity in topoisomerase inhibition assay (Topoisomerase-II) (Topoisomerase-II)
1 | COc1cccc2c1C(=O)c1c(O)c3c(c(O)c1C2=O)C[C@@](O)(C(=O)CO)C[C@@H]3O[C@H]1C[C@H](N)[C@H](O)[C@H](C)O1 [ADR, Adriamycin, reference compound] | 23 | 21 | 36 | 18 | 23 | 0 |  |  |  |  |  |  |  | 
2 | COc1cc([C@@H]2c3cc4c(cc3[C@@H](Nc3cccc5cc6ccccc6cc35)[C@@H]3COC(=O)[C@H]23)OCO4)cc(OC)c1OC [Compound 3a, 4β-(1″-Anthrylamino)-4-desoxypodophyllotoxin] |  |  |  |  |  |  | 5 | 25 | 65 | 55 | 46 | 16 |  | 
3 | COc1cc([C@@H]2c3cc4c(cc3[C@@H](Nc3cccc5c3Cc3ccccc3-5)[C@@H]3COC(=O)[C@H]23)OCO4)cc(OC)c1OC [Compound 3b, 4β-(1″-Fluorenylamino)-4-desoxypodophyllotoxin] |  |  |  |  |  |  | 4 | 11 | 44 | 49 | 77 | 0 |  | 
4 | COc1cc([C@@H]2c3cc4c(cc3[C@@H](Nc3ccc5ccc6cccc7ccc3c5c67)[C@@H]3COC(=O)[C@H]23)OCO4)cc(OC)c1OC [Compound 3c, 4β-(1″-Pyrenylamino)-4-desoxypodophyllotoxin] |  |  |  |  |  |  | 0 | 29 | 59 | 64 | 66 | 0 | not active | 
5 | COc1cc([C@@H]2c3cc4c(cc3[C@@H](Nc3ccc(C(=O)c5ccc(F)cc5)cc3)[C@@H]3COC(=O)[C@H]23)OCO4)cc(OC)c1OC [Compound 3e, 4β-[4″-(4″-Fluorobenzoyl)anilino]-4-desoxypodophyllotoxin] |  |  |  |  |  |  | 30 | 10 | 34 | 68 | 0 | 0 |  | 
6 | COc1cc([C@@H]2c3cc4c(cc3[C@@H](Nc3ccc(C(=O)c5ccc(N(CCCl)CCCl)cc5)cc3)[C@@H]3COC(=O)[C@H]23)OCO4)cc(OC)c1OC [Compound 3f, 4β-(4″-{4″-[Di(2″-chloroethyl)amino]benzoyl}anilino)-4-desoxypodophyllotoxin] |  |  |  |  |  |  | 40 | 15 | 83 | 74 | 45 | 0 |  | 
7 | COc1cc([C@@H]2c3cc4c(cc3[C@@H](Nc3cccc5cc6ccccc6cc35)[C@@H]3COC(=O)[C@H]23)OCO4)cc(OC)c1O [Compound 4a, 4′-O-Demethyl-4β-(1″-anthrylamino)-4-desoxypodophyllotoxin] |  |  |  |  |  |  | 0 | 22 | 38 | 39 | 58 | 0 |  | 
8 | COc1cc([C@@H]2c3cc4c(cc3[C@@H](Nc3cccc5c3Cc3ccccc3-5)[C@@H]3COC(=O)[C@H]23)OCO4)cc(OC)c1O [Compound 4b, 4′-O-Demethyl-4β-(1″-fluorenylamino)-4-desoxypodophyllotoxin] |  |  |  |  |  |  | 39 | 15 | 50 | 55 | 0 | 0 |  | 
9 | COc1cc([C@@H]2c3cc4c(cc3[C@@H](Nc3ccc5ccc6cccc7ccc3c5c67)[C@@H]3COC(=O)[C@H]23)OCO4)cc(OC)c1O [Compound 4c, 4′-O-Demethyl-4β-(1″-pyrenylamino)-4-desoxypodophyllotoxin] |  |  |  |  |  |  | 0 | 7 | 40 | 40 | 39 | 0 | not active | None of the compounds are active
10 | COc1cc([C@@H]2c3cc4c(cc3[C@@H](Nc3cc5c6ccccc6ccc5c5ccccc35)[C@@H]3COC(=O)[C@H]23)OCO4)cc(OC)c1O [Compound 4d, 4′-O-Demethyl-4β-(6″-chrycenylamino)-4-desoxypodophyllotoxin] |  |  |  |  |  |  | 0 | 17 | 58 | 58 | 76 | 0 | not active | None of the compounds are active
11 | COc1cc([C@@H]2c3cc4c(cc3[C@@H](Nc3ccc(C(=O)c5ccc(F)cc5)cc3)[C@@H]3COC(=O)[C@H]23)OCO4)cc(OC)c1O [Compound 4e, 4′-O-Demethyl-4β-[4″-(4″-fluorobenzoyl)anilino]-4-desoxypodophyllotoxin] |  |  |  |  |  |  | 39 | 42 | 91 | 77 | 51 | 11 |  | 
